Patent publication US6875761B2 (Eisai Co., Ltd., priority 1997, dated 2005)
Structures can show the parent of a compound that is named as a salt.

| Structure (SMILES) | melting point |
| --- | --- |
| CCN1CCN(c2nc(C#CCc3ccccc3)cc3ccccc23)CC1 (as salt: oxalate) [Example 181, 1-(1-Ethylpiperazin-4-Yl)-3-(3-Phenyl-1-Propynyl)Isoquinoline Oxalate] | 180 to 183 °C |
| COc1ccc(-c2cc3ccccc3c(NCCN3CCOCC3)n2)cc1 (as salt: hydrochloride) [Example 323, 1-[2-(4-morpholinyl)ethyl]amino-3-(4-methoxyphenyl)isoquinoline dihydrochloride] | 135 to 136 °C |
| CCN1CCN(c2nc(-c3ccc(C4=CCOCC4)s3)cc3ccccc23)CC1 (as salt: hydrochloride) [Example 176, 3-[2-(5,6-Dihydro-2H-Pyran-4-Yl)Thiophen-5-Yl]-1-[4-Ethylpiperazin-1-Yl)Isoquinoline Hydrochloride] | 256 to 258 °C |
| CCN1CCN(c2nc(-c3ccc([C@@H]4C[C@H](O)CCO4)cc3)cc3ccsc23)CC1 (relative stereo) (as salt: hydrochloride) [Example 454, 7-(4-Ethylpiperazin-1-yl)-5-[4-(cis-4-hydroxytetrahydropyran-2-yl)phenyl]thieno[2,3-c]pyridine dihydrochloride] | 157 to 159 °C |
| CCN1CCN(c2nc(-c3ccc(N4CCOC4=O)cc3)cc3ccccc23)CC1 (as salt: hydrochloride) [Example 95, 3-[4-(3-Oxazolidinone)phenyl]-1-(4-ethylpiperazin-1-yl)isoquinoline Hydrochloride] | 171 to 174 °C |
| CCN1CCN(c2nc(-c3ccc(CCCO)cc3)cc3sccc23)CC1 (as salt: hydrochloride) [Example 465, 4-(4-ethylpiperazin-1-yl)-6-[4-(3-hydroxypropy)phenyl]thieno[3,2-c]pyridine dihydrochloride] | 125.5 to 126.5 °C |
| CCN1CCN(c2nc(-c3cccc(CCCO)c3)cc3ccccc23)CC1 (as salt: hydrochloride) [Example 418, 1-(4-ethylpiperazin-1-yl)-3-[3-(3-hydroxypropyl)phenyl]isoquinoline] | 101 to 103 °C |
| CCN1CCN(c2nc(C(=O)c3ccccc3OC)cc3ccccc23)CC1 (as salt: oxalate) [Example 111, 3-(2-Methoxyphenylcarbonyl)-1-(4-ethylpiperazin-1-yl)isoquinoline Oxalate] | 153 to 156 °C |
| CCN1CCN(c2nc(-c3ccc4c(c3)CCC4O)cc3ccccc23)CC1 (stereo not shown) (as salt: oxalate) [Example 415, 1-(4-ethylpiperazin-1-yl)-3-(1-hydroxyindan-5-yl)isoquinoline] | 193 to 195 °C |
| CCN1CCN(c2nc(C3CCCc4cc(OC)ccc43)cc3ccccc23)CC1 (stereo not shown) (as salt: oxalate) | 170 to 173 °C |
| CCN1CCN(c2nc(/C=C/c3ccc(CS(C)(=O)=O)cc3)cc3ccccc23)CC1 (as salt: oxalate) [Example 203, 3-[(E)-2-(4-Methylsulfonylmethylphenyl)Ethenyl]-1-(4-Ethylpiperazin-1-Yl)Isoquinoline Oxalate] | 245 to 247 °C |
| CCN1CCN(c2nc(-c3ccc(OCCO)c(OCCO)c3)cc3ccccc23)CC1 (as salt: hydrochloride) | 130 to 132 °C |
| CCN1CCN(c2nc(/C=C/c3ccc(OC)cc3)cc3ccccc23)CC1 (as salt: hydrochloride) [Example 190, 1-(1-Ethylpiperazin-4-Yl)-3-[Trans-2-(4-Methoxyphenyl)Ethenyl]Isoquinoline Dihydrochloride] | 227 °C (dec.) |
| CCN1CCN(c2nc(-c3ccc(OCCO)c(C#N)c3)cc3ccccc23)CC1 (as salt: hydrochloride) [Example 417, 1-(4-ethylpiperazin-1-yl)-3-[3-cyano-4-(2-hydroxyethoxy)phenyl]isoquinoline] | 162 to 164 °C |
| CCN1CCN(c2nc(-c3ccc(OCC(C)(C)O)cc3)cc3ccsc23)CC1 (as salt: hydrochloride) [Example 260, 7-(1-Ethylpiperazin-4-yl)-5-[4-(2-hydroxy-2-methylpropoxy)phenyl]thieno[2,3-c]pyridine dihydrochloride] | 137 to 139 °C |
| CCCCS(=O)(=O)Nc1ccc(-c2cc3ccccc3c(N3CCN(CC)CC3)n2)cc1 (as salt: hydrochloride) [Example 73, 3-(4-Butylsulfonylaminophenyl)-1-(4-Ethylpiperazin-1-Yl)Isoquinoline Hydrochloride] | 160 to 163 °C |
| CCN1CCN(c2nc(-c3ccc(OCCCO)cc3)cc3ccsc23)CC1 (as salt: hydrochloride) [Example 434, 7-(4-ethylpiperazin-1-yl)-5-[4-(3-hydroxypropoxy)phenyl]thieno[2,3-c]pyridine dihydrochloride] | 126 to 127 °C |
| CCN1CCN(c2nc(-c3ccc(SC[C@@H](C)O)cc3)cc3ccsc23)CC1 (as salt: hydrochloride) [Example 444, 7-(4-ethylpiperazin-1-yl)-5-[4-(2-hydroxypropylthio)phenyl]thieno[2,3-c]pyridine dihydrochloride] | 98.5 to 99.5 °C |
| CCN1CCN(c2nc(-c3ccc(OCCF)cc3)cc3ccccc23)CC1 (as salt: hydrochloride) [Example 45, 1-(4-Ethylpiperazin-1-Yl)-3-[4-(2-Fluoroethoxy)Phenyl]Isoquinoline Dihydrochloride] | 223 to 224 °C (dec.) |
| CCCNC(=O)c1ccc(-c2cc3ccsc3c(N3CCN(CC)CC3)n2)cc1 (as salt: hydrochloride) [Example 449, 7-(4-ethylpiperazin-1-yl)-5-[4-(N-propylcarbamoyl)phenyl]thieno[2,3-c]pyridine dihydrochloride] | 136.5 to 138 °C |

Next, values leading:

| melting point | Structure (SMILES) |
| --- | --- |
| 241 °C (dec.) | CCN1CCN(c2nc(-c3ccc(C#N)cc3)cc3ccccc23)CC1 (as salt: hydrochloride) [Example 62, 3-(4-Cyanophenyl)-1-(4-Ethylpiperazin-1-Yl)Isoquinoline Hydrochloride] |
| 138 to 143 °C | COc1ccc(-c2cc3ccccc3c(N3CCN(C4CC4)CC3)n2)cc1 (as salt: hydrochloride) [Example 239, 1-(1-cyclopropylpiperaziin-4-yl)-3-(4-methoxyphenyl)isoquinoline dihydrochloride] |
| 198 to 201 °C | CCN1CCN(c2nc(-c3ccc(NS(=O)(=O)CC)cc3)cc3ccccc23)CC1 (as salt: hydrochloride) [Example 71, 3-(4-Ethylsulfonylaminophenyl)-1-(4-Ethylpiperazin-1-Yl)Isoquinoline Hydrochloride] |
| 171 to 174 °C | CCS(=O)(=O)NCc1ccc(-c2cc3ccccc3c(N3CCN(CCO)CC3)n2)cc1 (as salt: hydrochloride) [Example 243, 3-(4-ethylsulfonylaminomethylphenyl)-1-[4-(2-hydroxyethyl)piperazin-1-yl]isoquinoline Hydrochloride] |
| 157 to 160 °C | CCN1CCN(c2nc(-c3ccc(OC)cc3)cc3cnccc23)CC1 (as salt: hydrochloride) |
| 106 to 108 °C | CCN1CCN(c2nc(-c3ccc(C(C)CCO)cc3)cc3ccccc23)CC1 (stereo not shown) (as salt: oxalate) [Example 383, 1-(4-Ethylpiperazin-1-yl)-3-[4-(3-Hydroxy-1-Methylpropyl)Phenyl]Isoquinoline Oxalate] |
| 150 to 151.5 °C | CCN1CCN(c2nc(-c3ccc(S(=O)(=O)CC)cc3)cc3ccccc23)CC1 (as salt: hydrochloride) [Example 366, 1-(4-ethylpiperazin-1-yl)-3-[4-(ethylsulfonyl)phenyl]isoquinoline dihydrochloride] |
| 145 to 147 °C | CCN1CCN(c2nc(-c3ccc(CO)cc3)cc3ccccc23)CC1 (as salt: hydrochloride) [Example 17, 1-(4-ethylpiperazin-1-yl)-3-(4-hydroxymethylphenyl)isoquinoline hydrochloride] |
| 130 to 132 °C | CCN1CCN(c2nc(-c3ccccc3)cc3ccc(OC)cc23)CC1 (as salt: hydrochloride) |
| 205 to 206 °C | CCN1CCN(c2nc(-c3ccc(CCC(C)(C)O)cc3)cc3ccccc23)CC1 (as salt: hydrochloride) [Example 388, 1-(4-Ethylpiperazin-1-yl)-3-[4-(3-Hydroxy-3-Methylbutyl)Phenyl]Isoquinoline Dihydrochloride] |
| 197 to 198 °C (dec.) | CCOc1ccc(-c2cc3ccccc3c(N3CCN(CC)CC3)n2)cc1.Cl.Cl |
| 160 to 162 °C (dec.) | CCN1CCN(c2nc(-c3ccc(N(C)C)cc3)cc3ccccc23)CC1 (as salt: hydrochloride) [Example 66, 3-[4-(N,N-Dimethylamino)Phenyl]-1-(4-Ethylpiperazin-1-Yl)Isoquinoline Dihydrochloride] |
| 128 to 132 °C | CCN1CCN(c2nc(-c3ccc(OC)c(CCCCO)c3)cc3ccccc23)CC1 (as salt: hydrochloride) [Example 35, 3-[3-(4-hydroxybutyl)-4-methoxyphenyl]-1-(4-ethylpiperazin-1-yl)isoquinoline hydrochloride] |
| 133 to 135 °C | CCN1CCN(c2nc(-c3ccccc3OC)cc3ccccc23)CC1 (as salt: hydrochloride) |
| 138 to 140 °C | CCN1CCN(c2nc(-c3ccc(OCCO)c(Cl)c3)cc3ccccc23)CC1 (as salt: hydrochloride) [Example 39, 3-[3-chloro-4-(2-hydroxyethoxy)phenyl]-1-(4-ethylpiperazin-1-yl)isoquinoline hydrochloride] |
| 132 to 133 °C | CCN1CCN(c2nc(-c3ccc(C(O)CO)cc3)cc3ccccc23)CC1 (stereo not shown) (as salt: hydrochloride) [Example 387, 1-(4-Ethylpiperazin-1-yl)-3-[4-(1,2-Dihydroxyethyl)Phenyl]Isoquinoline Dihydrochloride] |
| 116 to 118 °C | CCN1CCN(c2nc(-c3ccc(C(=O)N(C)CCO)cc3)cc3ccccc23)CC1 (as salt: oxalate) [Example 382, 1-(4-Ethylpiperazin-1-yl)-3-{4-[N-(2-Hydroxyethyl)-N-Methylcarbamoyl]Phenyl}Isoquinoline] |
